# Measured values as given in the NIST ThermoML archive (doi:10.1016/j.jct.2008.07.021).
# Numbers after ± are expanded uncertainties.
# How the values were obtained:
# [1] = Crystal; DTA
# [2] = Molar enthalpy of transition or fusion; settings: Crystal; DSC
# [3] = molar enthalpy of vaporization or sublimation; settings: 298.15 K; Crystal; Static calorimetry
Triple point temperature [1],Molar enthalpy of transition or fusion [2],molar enthalpy [3],SMILES
362.52 ± 0.39 K,5.29 ± 0.124 kcal/mol,23.4 ± 0.215 kcal/mol,"COc1cccc2c1CCCC2=O [3,4-dihydro-5-methoxy-1(2H)-naphthalenone]"
351.27 ± 0.49 K,5.45 ± 0.182 kcal/mol,25 ± 0.43 kcal/mol,"COc1ccc2c(c1)CCCC2=O [3,4-dihydro-6-methoxy-1(2H)naphthalenone]"
334.79 ± 0.39 K,5.54 ± 0.127 kcal/mol,24.6 ± 0.43 kcal/mol,COc1ccc2c(c1)C(=O)CCC2 [7-methoxy-1-tetralone]
